Assay results taken from patent publication US20080145431A1, “Medicinal Composition and Process for Producing the Same” (priority 2005, published 2008).
Where two headings read alike, the source gives them in different places.

Experiments:
[1] = Saturation solubility in water; format: physicochemical
[2] = cited from earlier work

Row | Solubility in water under substantially physiological conditions ([1]; pH 5 to 7) | solubility ([1]; water, process liquid temperature of 17° C.) | SMILES | Saturation solubility in water ([2]; 22° C.) | Saturation solubility in water ([2]; 37° C.)
1 | practically insoluble | ≤ 100 µg/mL | NS(=O)(=O)c1ccc(S(=O)(=O)Nc2cccc3c(Cl)c[nH]c23)cc1 [Drug A, N-(3-chloro-7-indolyl)-1,4-benzenedisulfonamide] |  | 
2 |  |  | COc1ccc(Cl)cc1C(=O)NCCc1ccc(S(=O)(=O)NC(=O)NC2CCCCC2)cc1 [Glibenclamide] | 5.9 µg/mL | 9.9 µg/mL
